Results reported in PubChem BioAssay (NCI).
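The compound was tested at five concentrations on cells cultured in 96-well plates, with a 48-hour exposure period. TGI is the concentration that stops growth completely.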

Tests used:
Assay in all cases: NCI anticancer screen, dose series, 48 h
[1] = system: NCI-H23 lung
[2] = system: SR leukemia
[3] = system: OVCAR-8 ovarian
[4] = system: SNB-75 CNS
[5] = system: SF-295 CNS
[6] = system: HOP-92 NSCLC
[7] = system: HT29 colon
[8] = system: NCI-H522 lung
[9] = system: SNB-19 CNS
[10] = system: MCF7 breast
[11] = system: CAKI-1 renal
[12] = system: SW-620 colon
[13] = system: A498 renal
[14] = system: OVCAR-4 ovarian
[15] = system: HL-60(TB) leukemia
[16] = system: PC-3 prostate
[17] = system: SN12C renal
[18] = system: SF-539 CNS
[19] = system: MDA-N
[20] = system: NCI-H226 lung
[21] = system: HCC-2998 colon
[22] = system: MDA-MB-435
[23] = system: DU-145 prostate
[24] = system: UACC-257 melanoma
[25] = system: HOP-62 NSCLC
[26] = system: NCI-H460 lung
[27] = system: TK-10 renal
[28] = system: KM12 colon
[29] = system: MDA-MB-231 breast
[30] = system: UACC-62 melanoma
[31] = system: MALME-3M melanoma
[32] = system: HS 578T breast
[33] = system: MOLT-4 leukemia
[34] = system: OVCAR-5 ovarian
[35] = system: HCT-15 colon
[36] = system: RXF 393 renal
[37] = system: UO-31 renal
[38] = system: SK-MEL-28 melanoma
[39] = system: COLO 205 colon
[40] = system: A549 NSCLC
[41] = system: M14 melanoma
[42] = system: SK-OV-3 ovarian
[43] = system: HCT-116 colon
[44] = system: BT-549 breast
[45] = system: OVCAR-3 ovarian
[46] = system: T-47D breast
[47] = system: ACHN renal
[48] = system: SK-MEL-5 melanoma
[49] = system: EKVX NSCLC
[50] = system: U251 CNS
[51] = system: 786-0 renal
[52] = system: K-562 leukemia
[53] = system: NCI/ADR-RES ovarian
[54] = system: CCRF-CEM leukemia
[55] = system: LOX IMVI melanoma
[56] = system: SK-MEL-2 melanoma
[57] = system: SF-268 CNS
[58] = system: IGROV1 ovarian
[59] = system: RPMI-8226 leukemia

In the case of CC1(C)CC(=O)c2c(nc3c4c([nH]c(-c5ccc([N+](=O)[O-])cc5)c24)CC(C)(C)C3)C1, the TGI [1] is reported as > 100 µM, the TGI [2] is reported as 47.9 µM and the TGI [3] is reported as > 100 µM. The TGI [4] was > 100 µM, the TGI [5] was > 100 µM and the TGI [6] was > 100 µM. For the same compound, the TGI [7] was > 100 µM, the TGI [8] was > 100 µM and the TGI [9] was > 100 µM. The TGI [10] was > 100 µM, the TGI [11] was > 100 µM and the TGI [12] was > 100 µM. The TGI [13] was 44.6 µM, the TGI [14] was > 100 µM and the TGI [15] was > 100 µM. For the same compound, the TGI [16] was > 100 µM, the TGI [17] was > 100 µM and the TGI [18] was > 100 µM. For the same compound, the TGI [19] was > 100 µM, the TGI [20] was > 100 µM and the TGI [21] was > 100 µM. For the same compound, the TGI [22] was > 100 µM, the TGI [23] was > 100 µM and the TGI [24] was > 100 µM. The TGI [25] was > 100 µM, the TGI [26] was > 100 µM and the TGI [27] was > 100 µM. The TGI [28] was > 100 µM, the TGI [29] was > 100 µM and the TGI [30] was 93.4 µM. The TGI [31] was > 100 µM, the TGI [32] was > 100 µM and the TGI [33] was > 100 µM. The TGI [34] was > 100 µM, the TGI [35] was > 100 µM and the TGI [36] was > 100 µM. The TGI [37] was > 100 µM, the TGI [38] was > 100 µM and the TGI [39] was 59 µM. The TGI [40] was > 100 µM, the TGI [41] was > 100 µM and the TGI [42] was > 100 µM. The TGI [43] was > 100 µM, the TGI [44] was > 100 µM and the TGI [45] was > 100 µM. The TGI [46] was > 100 µM, the TGI [47] was > 100 µM and the TGI [48] was > 100 µM. For the same compound, the TGI [49] was > 100 µM, the TGI [50] was > 100 µM and the TGI [51] was > 100 µM. For the same compound, the TGI [52] was > 100 µM, the TGI [53] was > 100 µM and the TGI [54] was > 100 µM. The TGI [55] was > 100 µM, the TGI [56] was > 100 µM and the TGI [57] was > 100 µM.

With COc1cc(OC)c2nc3occc3c(OC)c2c1 the TGI [1] was > 100 µM, the TGI [2] was > 100 µM and the TGI [3] was > 100 µM. The TGI [4] was > 100 µM, the TGI [5] was > 100 µM and the TGI [6] was > 100 µM. For the same compound, the TGI [7] was > 100 µM, the TGI [8] was > 100 µM and the TGI [9] was > 100 µM. For the same compound, the TGI [10] was > 100 µM, the TGI [11] was > 100 µM and the TGI [12] was > 100 µM. For the same compound, the TGI [58] was > 100 µM, the TGI [13] was > 100 µM and the TGI [14] was > 100 µM. For the same compound, the TGI [15] was > 100 µM, the TGI [16] was > 100 µM and the TGI [17] was > 100 µM. For the same compound, the TGI [18] was > 100 µM, the TGI [19] was > 100 µM and the TGI [20] was > 100 µM. For the same compound, the TGI [21] was > 100 µM, the TGI [22] was > 100 µM and the TGI [23] was > 100 µM. The TGI [24] was > 100 µM, the TGI [25] was > 100 µM and the TGI [26] was > 100 µM. The TGI [27] was > 100 µM, the TGI [28] was > 100 µM and the TGI [29] was > 100 µM. For the same compound, the TGI [30] was > 100 µM, the TGI [31] was > 100 µM and the TGI [32] was > 100 µM. The TGI [33] was > 100 µM, the TGI [34] was > 100 µM and the TGI [35] was > 100 µM. For the same compound, the TGI [36] was > 100 µM, the TGI [37] was > 100 µM and the TGI [38] was > 100 µM. The TGI [39] was > 100 µM, the TGI [40] was > 100 µM and the TGI [41] was > 100 µM. For the same compound, the TGI [42] was > 100 µM, the TGI [43] was > 100 µM and the TGI [44] was > 100 µM. The TGI [45] was > 100 µM, the TGI [46] was > 100 µM and the TGI [47] was > 100 µM. For the same compound, the TGI [48] was > 100 µM, the TGI [49] was > 100 µM and the TGI [50] was > 100 µM. The TGI [51] was > 100 µM, the TGI [53] was > 100 µM and the TGI [59] was > 100 µM. For the same compound, the TGI [54] was > 100 µM, the TGI [55] was > 100 µM and the TGI [56] was > 100 µM. For the same compound, the TGI [57] was > 100 µM.

CCc1n[nH]c(=O)n1N1C(=O)C2CCCCC2C1=O (stereo unspecified) was tested, and the TGI [1] was > 100 µM, the TGI [2] was > 100 µM and the TGI [3] was > 100 µM. For the same compound, the TGI [4] was > 100 µM, the TGI [5] was > 100 µM and the TGI [6] was > 100 µM. The TGI [7] was > 100 µM, the TGI [8] was > 100 µM and the TGI [10] was > 100 µM. For the same compound, the TGI [11] was > 100 µM, the TGI [12] was > 100 µM and the TGI [58] was > 100 µM. The TGI [13] was > 100 µM, the TGI [14] was > 100 µM and the TGI [15] was > 100 µM. The TGI [16] was > 100 µM, the TGI [17] was > 100 µM and the TGI [19] was > 100 µM. The TGI [20] was > 100 µM, the TGI [21] was > 100 µM and the TGI [22] was > 100 µM. For the same compound, the TGI [23] was > 100 µM, the TGI [24] was > 100 µM and the TGI [25] was > 100 µM. For the same compound, the TGI [27] was > 100 µM, the TGI [28] was > 100 µM and the TGI [29] was > 100 µM. The TGI [30] was > 100 µM, the TGI [31] was > 100 µM and the TGI [32] was > 100 µM. The TGI [33] was > 100 µM, the TGI [34] was > 100 µM and the TGI [35] was > 100 µM. The TGI [36] was > 100 µM, the TGI [37] was > 100 µM and the TGI [38] was > 100 µM. The TGI [39] was > 100 µM, the TGI [40] was > 100 µM and the TGI [41] was > 100 µM. The TGI [42] was > 100 µM, the TGI [43] was > 100 µM and the TGI [44] was > 100 µM. The TGI [45] was > 100 µM, the TGI [46] was > 100 µM and the TGI [47] was > 100 µM. The TGI [48] was > 100 µM, the TGI [49] was > 100 µM and the TGI [50] was > 100 µM. The TGI [51] was > 100 µM, the TGI [52] was > 100 µM and the TGI [53] was > 100 µM. For the same compound, the TGI [59] was > 100 µM, the TGI [54] was > 100 µM and the TGI [55] was > 100 µM. For the same compound, the TGI [56] was > 100 µM and the TGI [57] was > 100 µM.
